The values that follow come from article PMC3447791, “High Mannose-Binding Antiviral Lectin PFL from Pseudomonas fluorescens Pf0-1 Promotes Cell Death of Gastric Cancer Cell MKN28 via Interaction with α2-Integrin” (PLoS ONE, 2012).

Experiment [1] deals with T1, PFL (Pseudomonas fluorescens, UniProt Q3KJ04).
T1 construct: gene Pfl01_0508; full length, 132 residues, two homologous domains; pET101/D-TOPO with native stop codon, E. coli BL21 Star (DE3); Alexa Fluor 488 labelled for the array
T1 sequence (Q3KJ04 2-133): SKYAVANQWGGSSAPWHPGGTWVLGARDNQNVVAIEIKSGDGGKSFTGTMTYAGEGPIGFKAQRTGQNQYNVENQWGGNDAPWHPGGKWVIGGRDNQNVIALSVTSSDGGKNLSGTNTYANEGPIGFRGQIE
The experiment can be described thus: CFG printed glycan microarray v5.[…], fluorescence. Conditions: 10 μg/ml Alexa488-PFL; glycan immobilised on array. Format: binding.

Experiment [2] addresses T1, PFL. The experiment can be described thus: CFG printed glycan microarray v5.[…], fluorescence. Format: binding. Particulars: 10 μg/ml Alexa488-PFL; glycan immobilised on array. This is another data set of the same source.

Substance M6 glycan [compound 216] gave an RFU at PFL [1] of 43471 RFU.
Take M7 glycan [compound 211]: the “binding potency relative to M6 glycan (216)” value at PFL [2] is ~ 53%.
As to M8 glycan [compound 212], the RFU at PFL [1] came out at 40759 RFU.
Same read-out and setting: next, “fucosylated counterpart of pentasaccharide core of N-glycan (50) [compound 485]”: 746 RFU.
